Experimental data taken from PubChem BioAssay (NCI).
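A five-concentration, 48-hour dose response in 96-well plates underlies each endpoint, interpolated linearly between surrounding concentrations. TGI denotes the concentration required for complete inhibition of growth.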

Experiments:
Test in all cases: NCI anticancer screen, dose series, 48 h
786-0 renal = system: 786-0 renal
A549 NSCLC = system: A549 NSCLC
ACHN renal = system: ACHN renal
BT-549 breast = system: BT-549 breast
CAKI-1 renal = system: CAKI-1 renal
CCRF-CEM leukemia = system: CCRF-CEM leukemia
COLO 205 colon = system: COLO 205 colon
DU-145 prostate = system: DU-145 prostate
EKVX NSCLC = system: EKVX NSCLC
HCC-2998 colon = system: HCC-2998 colon
HCT-116 colon = system: HCT-116 colon
HCT-15 colon = system: HCT-15 colon
HOP-62 NSCLC = system: HOP-62 NSCLC
HOP-92 NSCLC = system: HOP-92 NSCLC
HS 578T breast = system: HS 578T breast
HT29 colon = system: HT29 colon
IGROV1 ovarian = system: IGROV1 ovarian
K-562 leukemia = system: K-562 leukemia
KM12 colon = system: KM12 colon
LOX IMVI melanoma = system: LOX IMVI melanoma
M14 melanoma = system: M14 melanoma
MALME-3M melanoma = system: MALME-3M melanoma
MCF7 breast = system: MCF7 breast
MDA-MB-231 breast = system: MDA-MB-231 breast
MDA-MB-435 = system: MDA-MB-435
MDA-N = system: MDA-N
MOLT-4 leukemia = system: MOLT-4 leukemia
NCI-H226 lung = system: NCI-H226 lung
NCI-H23 lung = system: NCI-H23 lung
NCI-H460 lung = system: NCI-H460 lung
NCI-H522 lung = system: NCI-H522 lung
NCI/ADR-RES ovarian = system: NCI/ADR-RES ovarian
OVCAR-3 ovarian = system: OVCAR-3 ovarian
OVCAR-4 ovarian = system: OVCAR-4 ovarian
OVCAR-5 ovarian = system: OVCAR-5 ovarian
PC-3 prostate = system: PC-3 prostate
RPMI-8226 leukemia = system: RPMI-8226 leukemia
RXF 393 renal = system: RXF 393 renal
SF-268 CNS = system: SF-268 CNS
SF-295 CNS = system: SF-295 CNS
SK-MEL-2 melanoma = system: SK-MEL-2 melanoma
SK-MEL-28 melanoma = system: SK-MEL-28 melanoma
SK-MEL-5 melanoma = system: SK-MEL-5 melanoma
SK-OV-3 ovarian = system: SK-OV-3 ovarian
SN12C renal = system: SN12C renal
SNB-19 CNS = system: SNB-19 CNS
SNB-75 CNS = system: SNB-75 CNS
SR leukemia = system: SR leukemia
SW-620 colon = system: SW-620 colon
T-47D breast = system: T-47D breast
TK-10 renal = system: TK-10 renal
U251 CNS = system: U251 CNS
UACC-257 melanoma = system: UACC-257 melanoma
UACC-62 melanoma = system: UACC-62 melanoma
UO-31 renal = system: UO-31 renal
A498 renal = system: A498 renal
HL-60(TB) leukemia = system: HL-60(TB) leukemia
OVCAR-8 ovarian = system: OVCAR-8 ovarian
SF-539 CNS = system: SF-539 CNS

`c1ccc(CNCCCCNCCCNCc2ccccc2)cc1` showed a TGI (786-0 renal) of 31.4 µM, a TGI (A549 NSCLC) of 36.2 µM and a TGI (ACHN renal) of 29.3 µM. It also gave a TGI (BT-549 breast) of 33.6 µM, a TGI (CAKI-1 renal) of 40.3 µM and a TGI (CCRF-CEM leukemia) of 32.4 µM. The TGI (COLO 205 colon) was 27.6 µM, the TGI (DU-145 prostate) was 49.3 µM and the TGI (EKVX NSCLC) was 57.3 µM. For the same molecule, the TGI (HCC-2998 colon) was 31.3 µM, the TGI (HCT-116 colon) was 32.2 µM and the TGI (HCT-15 colon) was 39.4 µM. It also gave a TGI (HOP-62 NSCLC) of 60.8 µM, a TGI (HOP-92 NSCLC) of 25.3 µM and a TGI (HS 578T breast) of 29.7 µM. It also gave a TGI (HT29 colon) of 31 µM, a TGI (IGROV1 ovarian) of 26.7 µM and a TGI (K-562 leukemia) of 34.2 µM. The TGI (KM12 colon) was 40.5 µM, the TGI (LOX IMVI melanoma) was 32.7 µM and the TGI (M14 melanoma) was 86.5 µM. The TGI (MALME-3M melanoma) was 30.2 µM, the TGI (MCF7 breast) was over 100 µM and the TGI (MDA-MB-231 breast) was 33.2 µM. The TGI (MDA-MB-435) was 34.7 µM, the TGI (MDA-N) was 26.3 µM and the TGI (MOLT-4 leukemia) was 33.2 µM. It also gave a TGI (NCI-H226 lung) of 41.4 µM, a TGI (NCI-H23 lung) of 47.4 µM and a TGI (NCI-H460 lung) of 30.2 µM. For the same molecule, the TGI (NCI-H522 lung) was 31 µM, the TGI (NCI/ADR-RES ovarian) was over 100 µM and the TGI (OVCAR-3 ovarian) was 54.7 µM. For the same molecule, the TGI (OVCAR-4 ovarian) was 38.2 µM, the TGI (OVCAR-5 ovarian) was over 100 µM and the TGI (PC-3 prostate) was 28.8 µM. For the same molecule, the TGI (RPMI-8226 leukemia) was over 100 µM, the TGI (RXF 393 renal) was 32.7 µM and the TGI (SF-268 CNS) was 51.8 µM. For the same molecule, the TGI (SF-295 CNS) was over 100 µM, the TGI (SK-MEL-2 melanoma) was over 100 µM and the TGI (SK-MEL-28 melanoma) was 31.2 µM. For the same molecule, the TGI (SK-MEL-5 melanoma) was 32.5 µM, the TGI (SK-OV-3 ovarian) was over 100 µM and the TGI (SN12C renal) was 36.4 µM. It also gave a TGI (SNB-19 CNS) of 32.7 µM, a TGI (SNB-75 CNS) of 49.4 µM and a TGI (SR leukemia) of 56.1 µM. It also gave a TGI (SW-620 colon) of 31.8 µM, a TGI (T-47D breast) of over 100 µM and a TGI (TK-10 renal) of 77.4 µM. It also gave a TGI (U251 CNS) of 35.7 µM, a TGI (UACC-257 melanoma) of 32 µM and a TGI (UACC-62 melanoma) of 32.4 µM. It also gave a TGI (UO-31 renal) of 52.4 µM.
`Cc1oc2c(Cl)cc(O)c(Cl)c2c2cccc1-2` gave a TGI (786-0 renal) of 76 µM, a TGI (A498 renal) of over 100 µM and a TGI (A549 NSCLC) of over 100 µM. For the same molecule, the TGI (ACHN renal) was over 100 µM, the TGI (BT-549 breast) was 74.2 µM and the TGI (CAKI-1 renal) was over 100 µM. It also gave a TGI (CCRF-CEM leukemia) of 95.3 µM, a TGI (COLO 205 colon) of over 100 µM and a TGI (DU-145 prostate) of 27.5 µM. It also gave a TGI (EKVX NSCLC) of 54.6 µM, a TGI (HCC-2998 colon) of over 100 µM and a TGI (HCT-116 colon) of 36.4 µM. It also gave a TGI (HCT-15 colon) of 75.4 µM, a TGI (HL-60(TB) leukemia) of over 100 µM and a TGI (HOP-62 NSCLC) of 66.5 µM. The TGI (HOP-92 NSCLC) was 52.1 µM, the TGI (HS 578T breast) was over 100 µM and the TGI (HT29 colon) was over 100 µM. It also gave a TGI (IGROV1 ovarian) of 75.4 µM, a TGI (K-562 leukemia) of 47.4 µM and a TGI (KM12 colon) of 47.4 µM. It also gave a TGI (LOX IMVI melanoma) of 36.1 µM, a TGI (M14 melanoma) of over 100 µM and a TGI (MALME-3M melanoma) of 53.1 µM. The TGI (MCF7 breast) was over 100 µM, the TGI (MDA-MB-231 breast) was over 100 µM and the TGI (MDA-MB-435) was 70 µM. For the same molecule, the TGI (MDA-N) was 60.3 µM, the TGI (NCI-H226 lung) was 61.6 µM and the TGI (NCI-H23 lung) was 44.1 µM. It also gave a TGI (NCI-H460 lung) of over 100 µM, a TGI (NCI-H522 lung) of 83.3 µM and a TGI (NCI/ADR-RES ovarian) of 79.9 µM. The TGI (OVCAR-3 ovarian) was 56.6 µM, the TGI (OVCAR-4 ovarian) was 36.9 µM and the TGI (OVCAR-5 ovarian) was over 100 µM. For the same molecule, the TGI (OVCAR-8 ovarian) was 82.6 µM, the TGI (PC-3 prostate) was over 100 µM and the TGI (RPMI-8226 leukemia) was 36.6 µM. For the same molecule, the TGI (SF-268 CNS) was over 100 µM, the TGI (SF-295 CNS) was over 100 µM and the TGI (SF-539 CNS) was 71.4 µM. It also gave a TGI (SK-MEL-2 melanoma) of over 100 µM, a TGI (SK-MEL-28 melanoma) of 57.5 µM and a TGI (SK-MEL-5 melanoma) of 52.1 µM. The TGI (SK-OV-3 ovarian) was over 100 µM, the TGI (SN12C renal) was 80.7 µM and the TGI (SNB-19 CNS) was over 100 µM. It also gave a TGI (SNB-75 CNS) of 20.7 µM, a TGI (SR leukemia) of 77 µM and a TGI (SW-620 colon) of over 100 µM. For the same molecule, the TGI (T-47D breast) was 16.5 µM, the TGI (TK-10 renal) was over 100 µM and the TGI (U251 CNS) was 64.9 µM. For the same molecule, the TGI (UACC-257 melanoma) was over 100 µM, the TGI (UACC-62 melanoma) was over 100 µM and the TGI (UO-31 renal) was over 100 µM.
With `CC(=O)Oc1ccccc1/C=C/C(=O)/C=C/c1ccccc1OC(C)=O` the TGI (786-0 renal) was 3.71 µM, the TGI (A498 renal) was 4.01 µM and the TGI (A549 NSCLC) was 6.37 µM. The TGI (ACHN renal) was 3.62 µM, the TGI (BT-549 breast) was 3.97 µM and the TGI (CAKI-1 renal) was 10.4 µM. The TGI (CCRF-CEM leukemia) was 12.6 µM, the TGI (COLO 205 colon) was 4.06 µM and the TGI (DU-145 prostate) was 9.59 µM. It also gave a TGI (EKVX NSCLC) of 9.9 µM, a TGI (HCC-2998 colon) of 4.18 µM and a TGI (HCT-116 colon) of 0.973 µM. The TGI (HCT-15 colon) was 9.34 µM, the TGI (HOP-62 NSCLC) was 5.32 µM and the TGI (HOP-92 NSCLC) was 10.7 µM. For the same molecule, the TGI (HS 578T breast) was over 51.9 µM, the TGI (HT29 colon) was 4.25 µM and the TGI (IGROV1 ovarian) was 4.52 µM. The TGI (K-562 leukemia) was 4.53 µM, the TGI (KM12 colon) was 3.06 µM and the TGI (LOX IMVI melanoma) was 2.01 µM. For the same molecule, the TGI (M14 melanoma) was 4.45 µM, the TGI (MALME-3M melanoma) was 6.11 µM and the TGI (MCF7 breast) was 4.99 µM. For the same molecule, the TGI (MDA-MB-231 breast) was 6.08 µM, the TGI (MDA-MB-435) was 5.37 µM and the TGI (MDA-N) was 6.67 µM. For the same molecule, the TGI (MOLT-4 leukemia) was 5.71 µM, the TGI (NCI-H226 lung) was 3.89 µM and the TGI (NCI-H23 lung) was 4.61 µM. For the same molecule, the TGI (NCI-H460 lung) was 6.48 µM, the TGI (NCI-H522 lung) was 4.69 µM and the TGI (NCI/ADR-RES ovarian) was 7.39 µM. For the same molecule, the TGI (OVCAR-3 ovarian) was 4.23 µM, the TGI (OVCAR-4 ovarian) was 10.2 µM and the TGI (OVCAR-5 ovarian) was 4.35 µM. It also gave a TGI (OVCAR-8 ovarian) of 5.12 µM, a TGI (PC-3 prostate) of 5.04 µM and a TGI (RPMI-8226 leukemia) of 1.84 µM. The TGI (RXF 393 renal) was 1.65 µM, the TGI (SF-268 CNS) was 8.17 µM and the TGI (SF-295 CNS) was 6.11 µM. For the same molecule, the TGI (SF-539 CNS) was 3.33 µM, the TGI (SK-MEL-2 melanoma) was 21.1 µM and the TGI (SK-MEL-28 melanoma) was 4.09 µM. The TGI (SK-MEL-5 melanoma) was 3.45 µM, the TGI (SK-OV-3 ovarian) was 13.6 µM and the TGI (SN12C renal) was 4.07 µM. For the same molecule, the TGI (SNB-19 CNS) was 6.53 µM, the TGI (SNB-75 CNS) was 5.95 µM and the TGI (SW-620 colon) was 2.32 µM. It also gave a TGI (T-47D breast) of 34.9 µM, a TGI (TK-10 renal) of 10.6 µM and a TGI (U251 CNS) of 3.18 µM. For the same molecule, the TGI (UACC-257 melanoma) was 2.96 µM, the TGI (UACC-62 melanoma) was 3.48 µM and the TGI (UO-31 renal) was 3.48 µM.
